Laboratory results taken from US20090042964A1, “AMINO-5-[SUBSTITUTED-4-(DIFLUOROMETHOXY)PHENYL]-5-PHENYLIMIDAZOLONE COMPOUNDS AS BETA-SECRETASE INHIBITORS” (Wyeth, priority 2007, published 2009).

Biological target: human BACE1 (Homo sapiens, UniProt P56817)
Assay: Fluorescent kinetic assay, evaluation of BACE1 binding affinity of test compounds
Format: biochemical
Details: 10 nM human BACE1, 25 μM substrate WABC-6, pH 4.5, room temperature; read-out: BACE1 IC50
Method in brief: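 Kinetic fluorescence assay: enzyme added last to inhibitor and substrate mix, reading started immediately; substrate at 100 μM working dilution (25 μL in 100 μL total). Buffer 66.7 mM Na-acetate pH 4.5 with 0.0667% CHAPS for inhibitor and enzyme dilutions; enzyme stock quantified at 280 nm.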

Chain of human BACE1 (P56817 46-501): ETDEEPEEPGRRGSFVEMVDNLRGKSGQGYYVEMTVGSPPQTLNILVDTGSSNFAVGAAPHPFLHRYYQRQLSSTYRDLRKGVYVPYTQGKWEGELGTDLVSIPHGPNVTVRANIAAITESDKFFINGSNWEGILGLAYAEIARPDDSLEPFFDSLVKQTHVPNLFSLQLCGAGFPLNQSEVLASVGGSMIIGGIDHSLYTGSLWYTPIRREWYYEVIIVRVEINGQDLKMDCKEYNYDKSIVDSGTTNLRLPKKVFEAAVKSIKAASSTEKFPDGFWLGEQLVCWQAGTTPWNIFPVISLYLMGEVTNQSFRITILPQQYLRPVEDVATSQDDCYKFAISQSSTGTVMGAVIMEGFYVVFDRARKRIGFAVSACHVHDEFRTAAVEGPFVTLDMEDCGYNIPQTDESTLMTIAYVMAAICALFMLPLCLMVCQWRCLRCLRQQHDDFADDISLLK

Row | IC50 | SMILES
1 | < 100 nM | CCc1cc(C2(c3cccc(C#CCF)c3)N=C(N)N(C)C2=O)ccc1OC(F)F (stereo not shown) [Example 158, 2-Amino-5-[4-(difluoromethoxy)-3-ethylphenyl]-5-[3-(3-fluoroprop-1-yn-1-yl)phenyl]-3-methyl-3,5-dihydro-4H-imidazol-4-one]
2 | < 100 nM | CCc1cc(C2(c3ccc(F)c(C#CCF)c3)N=C(N)N(C)C2=O)ccc1OC(F)F (stereo not shown) [Example 159, 2-Amino-5-[4-(difluoromethoxy)-3-ethylphenyl]-5-[4-fluoro-3-(3-fluoroprop-1-yn-1-yl)phenyl]-3-methyl-3,5-dihydro-4H-imidazol-4-one]
3 | > 1000 nM | CCc1cc([C@@]2(c3cccc(C#CCF)c3)N=C(N)N(C)C2=O)ccc1OC(F)F [Example 160, (5R)-2-Amino-5-[4-(difluoromethoxy)-3-ethylphenyl]-5-[3-(3-fluoroprop-1-yn-1-yl)phenyl]-3-methyl-3,5-dihydro-4H-imidazol-4-one]
4 | < 100 nM | CCc1cc([C@]2(c3cccc(C#CCF)c3)N=C(N)N(C)C2=O)ccc1OC(F)F [Example 161, (5S)-2-Amino-5-[4-(difluoromethoxy)-3-ethylphenyl]-5-[3-(3-fluoroprop-1-yn-1-yl)phenyl]-3-methyl-3,5-dihydro-4H-imidazol-4-one]
5 | < 100 nM | CCc1cc([C@]2(c3ccc(F)c(C#CCF)c3)N=C(N)N(C)C2=O)ccc1OC(F)F [Example 162, (5R)-2-Amino-5-[4-(difluoromethoxy)-3-ethylphenyl]-5-[4-fluoro-3-(3-fluoroprop-1-yn-1-yl)phenyl]-3-methyl-3,5-dihydro-4H-imidazol-4-one]
6 | 110 to 1000 nM | CCc1cc([C@@]2(c3ccc(F)c(C#CCF)c3)N=C(N)N(C)C2=O)ccc1OC(F)F [Example 163, (5S)-2-Amino-5-[4-(difluoromethoxy)-3-ethylphenyl]-5-[4-fluoro-3-(3-fluoroprop-1-yn-1-yl)phenyl]-3-methyl-3,5-dihydro-4H-imidazol-4-one]
7 | < 100 nM | C#Cc1cccc(C2(c3ccc(OC(F)F)c(C4CC4)c3)N=C(N)N(C)C2=O)c1 (stereo not shown) [Example 167, 2-amino-4-(3-cyclopropyl-4-(difluoromethoxy)phenyl)-4-(3-ethynylphenyl)-1-methyl-1H-imidazol-5(4H)-one]
8 | < 100 nM | CC#Cc1cccc(C2(c3ccc(OC(F)F)c(C4CC4)c3)N=C(N)N(C)C2=O)c1 (stereo not shown) [Example 168, 2-amino-4-(3-cyclopropyl-4-(difluoromethoxy)phenyl)-1-methyl-4-(3-(prop-1-ynyl)phenyl)-1H-imidazol-5(4H)-one]
9 | < 100 nM | CCC#Cc1cccc(C2(c3ccc(OC(F)F)c(C4CC4)c3)N=C(N)N(C)C2=O)c1 (stereo not shown) [Example 171, 2-amino-4-(3-(but-1-ynyl)phenyl)-4-(3-cyclopropyl-4-(difluoromethoxy)phenyl)-1-methyl-1H-imidazol-5(4H)-one]
10 | 110 to 1000 nM | CCCC#Cc1cccc(C2(c3ccc(OC(F)F)c(C4CC4)c3)N=C(N)N(C)C2=O)c1 (stereo not shown) [Example 172, 2-amino-4-(3-cyclopropyl-4-(difluoromethoxy)phenyl)-1-methyl-4-(3-(pent-1-ynyl)phenyl)-1H-imidazol-5(4H)-one]
11 | < 100 nM | CC(C)C#Cc1cccc(C2(c3ccc(OC(F)F)c(C4CC4)c3)N=C(N)N(C)C2=O)c1 (stereo not shown) [Example 173, 2-amino-4-(3-cyclopropyl-4-(difluoromethoxy)phenyl)-1-methyl-4-(3-(3-methylbut-1-ynyl)phenyl)-1H-imidazol-5(4H)-one]
12 | < 100 nM | CN1C(=O)C(c2cccc(C#CC3CC3)c2)(c2ccc(OC(F)F)c(C3CC3)c2)N=C1N (stereo not shown) [Example 176, 2-amino-4-(3-cyclopropyl-4-(difluoromethoxy)phenyl)-4-(3-(cyclopropylethynyl)phenyl)-1-methyl-1H-imidazol-5(4H)-one]
13 | < 100 nM | CN1C(=O)C(c2cccc(C#CC(C)(C)O)c2)(c2ccc(OC(F)F)c(C3CC3)c2)N=C1N (stereo not shown) [Example 179, 2-amino-4-(3-cyclopropyl-4-(difluoromethoxy)phenyl)-4-(3-(3-hydroxy-3-methylbut-1-ynyl)phenyl)-1-methyl-1H-imidazol-5(4H)-one]
14 | < 100 nM | COCC#Cc1cccc(C2(c3ccc(OC(F)F)c(C4CC4)c3)N=C(N)N(C)C2=O)c1 (stereo not shown) [Example 180, 2-amino-4-(3-cyclopropyl-4-(difluoromethoxy)phenyl)-4-(3-(3-methoxyprop-1-ynyl)phenyl)-1-methyl-1H-imidazol-5(4H)-one]
15 | < 100 nM | COCCC#Cc1cccc(C2(c3ccc(OC(F)F)c(C4CC4)c3)N=C(N)N(C)C2=O)c1 (stereo not shown) [Example 183, 2-amino-4-(3-cyclopropyl-4-(difluoromethoxy)phenyl)-4-(3-(4-methoxybut-1-ynyl)phenyl)-1-methyl-1H-imidazol-5(4H)-one]
16 | < 100 nM | COCCCC#Cc1cccc(C2(c3ccc(OC(F)F)c(C4CC4)c3)N=C(N)N(C)C2=O)c1 (stereo not shown) [Example 186, 2-amino-4-(3-cyclopropyl-4-(difluoromethoxy)phenyl)-4-(3-(5-methoxypent-1-ynyl)phenyl)-1-methyl-1H-imidazol-5(4H)-one]

Row | IC50 | SMILES
17 | 110 to 1000 nM | CN1C(=O)C(c2cccc(C3CC3)c2)(c2ccc(OC(F)F)c(C3CC3)c2)N=C1N (stereo not shown) [Example 187, 2-amino-4-(3-cyclopropyl-4-(difluoromethoxy)phenyl)-4-(3-cyclopropylphenyl)-1-methyl-1H-imidazol-5(4H)-one]
18 | < 100 nM | CN1C(=O)C(c2cccc(C#CCCCO)c2)(c2ccc(OC(F)F)c(C3CC3)c2)N=C1N (stereo not shown) [Example 188, 2-amino-4-(3-cyclopropyl-4-(difluoromethoxy)phenyl)-4-(3-(5-hydroxypent-1-ynyl)phenyl)-1-methyl-1H-imidazol-5(4H)-one]
19 | < 100 nM | CN1C(=O)C(c2cccc(C#CCCCF)c2)(c2ccc(OC(F)F)c(C3CC3)c2)N=C1N (stereo not shown) [Example 191, 2-amino-4-(3-cyclopropyl-4-(difluoromethoxy)phenyl)-4-(3-(5-fluoropent-1-ynyl)phenyl)-1-methyl-1H-imidazol-5(4H)-one]
20 | 110 to 1000 nM | CN1C(=O)C(c2ccc(OC(F)F)c(C3CC3)c2)(c2ccc(OC(F)F)c(C3CC3)c2)N=C1N [Example 194, 2-amino-4,4-bis(3-cyclopropyl-4-(difluoromethoxy)phenyl)-1-methyl-1H-imidazol-5(4H)-one]
21 | 110 to 1000 nM | Cc1cc(C2(c3ccc(F)c(OC(C)C)c3)N=C(N)N(C)C2=O)ccc1OC(F)F (stereo not shown) [Example 195, 2-amino-5-[4-(difluoromethoxy)-3-methylphenyl]-5-(4-fluoro-3-isopropoxyphenyl)-3-methyl-3,5-dihydro-4H-imidazol-4-one]
22 | < 100 nM | Cc1cc(C2(c3cccc(C#CCF)c3)N=C(N)N(C)C2=O)ccc1OC(F)F (stereo not shown) [Example 196, 2-amino-5-[4-(difluoromethoxy)-3-methylphenyl]-5-[3-(3-fluoroprop-1-yn-1-yl)phenyl]-3-methyl-3,5-dihydro-4H-imidazol-4-one]
23 | > 1000 nM | Cc1cc([C@@]2(c3cccc(C#CCF)c3)N=C(N)N(C)C2=O)ccc1OC(F)F [Example 200, (5R)-2-amino-5-[4-(difluoromethoxy)-3-methylphenyl]-5-[3-(3-fluoroprop-1-yn-1-yl)phenyl]-3-methyl-3,5-dihydro-4H-imidazol-4-one]
24 | < 100 nM | Cc1cc([C@]2(c3cccc(C#CCF)c3)N=C(N)N(C)C2=O)ccc1OC(F)F [Example 201, (5S)-2-amino-5-[4-(difluoromethoxy)-3-methylphenyl]-5-[3-(3-fluoroprop-1-yn-1-yl)phenyl]-3-methyl-3,5-dihydro-4H-imidazol-4-one]
25 | < 100 nM | Cc1cc(C2(c3cccc(C#CCCF)c3)N=C(N)N(C)C2=O)ccc1OC(F)F (stereo not shown) [Example 202, 2-amino-5-[4-(difluoromethoxy)-3-methylphenyl]-5-[3-(4-fluorobut-1-yn-1-yl)phenyl]-3-methyl-3,5-dihydro-4H-imidazol-4-one]
26 | < 100 nM | Cc1cc(C2(c3ccc(F)c(C#CCCF)c3)N=C(N)N(C)C2=O)ccc1OC(F)F (stereo not shown) [Example 203, 2-amino-5-[4-(difluoromethoxy)-3-methylphenyl]-5-[4-fluoro-3-(4-fluorobut-1-yn-1-yl)phenyl]-3-methyl-3,5-dihydro-4H-imidazol-4-one]
27 | > 1000 nM | Cc1cc([C@@]2(c3cccc(C#CCCF)c3)N=C(N)N(C)C2=O)ccc1OC(F)F [Example 204, (5R)-2-amino-5-[4-(difluoromethoxy)-3-methylphenyl]-5-[3-(4-fluorobut-1-yn-1-yl)phenyl]-3-methyl-3,5-dihydro-4H-imidazol-4-one]
28 | < 100 nM | Cc1cc([C@]2(c3ccc(F)c(C#CCCF)c3)N=C(N)N(C)C2=O)ccc1OC(F)F [Example 205, (5R)-2-amino-5-[4-(difluoromethoxy)-3-methylphenyl]-5-[4-fluoro-3-(4-fluorobut-1-yn-1-yl)phenyl]-3-methyl-3,5-dihydro-4H-imidazol-4-one]
29 | < 100 nM | Cc1cc([C@]2(c3cccc(C#CCCF)c3)N=C(N)N(C)C2=O)ccc1OC(F)F [Example 206, (5S)-2-amino-5-[4-(difluoromethoxy)-3-methylphenyl]-5-[3-(4-fluorobut-1-yn-1-yl)phenyl]-3-methyl-3,5-dihydro-4H-imidazol-4-one]
30 | 110 to 1000 nM | Cc1cc([C@@]2(c3ccc(F)c(C#CCCF)c3)N=C(N)N(C)C2=O)ccc1OC(F)F [Example 207, (5S)-2-amino-5-[4-(difluoromethoxy)-3-methylphenyl]-5-[4-fluoro-3-(4-fluorobut-1-yn-1-yl)phenyl]-3-methyl-3,5-dihydro-4H-imidazol-4-one]
31 | < 100 nM | CN1C(=O)C(c2ccc(F)c(C#CCCF)c2)(c2ccc(OC(F)F)c(C3CC3)c2)N=C1N (stereo not shown) [Example 208, 2-amino-5-[3-cyclopropyl-4-(difluoromethoxy)phenyl]-5-[4-fluoro-3-(4-fluorobut-1-yn-1-yl)phenyl]-3-methyl-3,5-dihydro-4H-imidazol-4-one]
